Molecular target: T1, RgpB (Porphyromonas gingivalis, UniProt P95493)
T1 construct: 0.02 nM RgpB, isolated from culture of Porphyromonas gingivalis; endogenous in cells
Assay: RgpB inhibition, fluorogenic assay
Assay type: biochemical
Details: Activity (RgpB IC50), 0.02 nM RgpB, 10 μM Boc-Phe-Ser-Arg-MCA, 90 minutes, 37° C., pH=7.5
Protocol: The capacities of compounds of the present invention to inhibit the activity of RgpB were measured in a fluorogenic assay similar to those described in Barret Biochemical Journal. 1980, 187(3), 909. The specific assay conditions were as follows. Buffer: pH=7.5, 100 mM Tris-HCl, 75 mM NaCl, 2.5 mM CaCl2, 10 mM cysteine, 1% DMSO after all additions. Protein: 0.02 nM RgpB, isolated from culture of Porphyromonas gingivalis, as described in Pike et al. J. Biol. Chem. 1994, 269(1), 406, and Potempa and Nguyen. Current Protocols in Protein Scienc. 2007, 21.20.1-21.20.27. Fluorogenic substrate: 10 μM Boc-Phe-Ser-Arg-MCA. Time=90 minutes. Temperature=37° C. Each compound: 10 concentrations, starting at either 100 μM or 100 nM, with lower concentrations generated by serial 3-fold dilutions. By testing a range of concentrations for each compound, the concentration required to inhibit the activity of RgpB by 50% (the “IC50”) was determined.

T1 sequence (P95493 230-664): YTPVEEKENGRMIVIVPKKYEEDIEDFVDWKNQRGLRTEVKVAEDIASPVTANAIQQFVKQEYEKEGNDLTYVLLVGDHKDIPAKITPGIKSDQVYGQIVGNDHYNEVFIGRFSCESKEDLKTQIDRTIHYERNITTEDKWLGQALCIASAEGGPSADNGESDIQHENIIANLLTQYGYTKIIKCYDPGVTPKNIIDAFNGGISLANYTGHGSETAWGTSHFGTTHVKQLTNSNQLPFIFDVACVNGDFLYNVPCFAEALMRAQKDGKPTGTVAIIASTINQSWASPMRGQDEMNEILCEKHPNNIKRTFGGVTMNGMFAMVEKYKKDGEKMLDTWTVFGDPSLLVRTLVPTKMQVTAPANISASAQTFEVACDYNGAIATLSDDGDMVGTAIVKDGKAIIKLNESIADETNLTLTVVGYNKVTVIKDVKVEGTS

SMILES	IC50
N#CN1CCCC1c1ccc2c(N)nccc2c1 (stereo not shown) [Compound 45, 2-(1-aminoisoquinolin-6-yl)pyrrolidine-1-carbonitrile]	< 100 nM
N#CN1CCC[C@H]1COc1ccnc(N)c1Cl [Compound 42, (S)-2-(((2-amino-3-chloropyridin-4-yl)oxy)methyl)pyrrolidine-1-carbonitrile]	10000 to 100000 nM
N#CN1CCC[C@H]1COc1cc(N)ncc1Br [Compound 30, (S)-2-(((2-amino-5-bromopyridin-4-yl)oxy)methyl)pyrrolidine-1-carbonitrile]	10000 to 100000 nM
N#CN1CCC[C@@H]1c1ccc2c(N)nccc2c1 [Compound 43, (R)-2-(1-aminoisoquinolin-6-yl)pyrrolidine-1-carbonitrile]	< 100 nM
CC(c1ccc2c(N)nccc2c1)N(C)C#N (stereo not shown) [Compound 46, N-(1-(1-aminoisoquinolin-6-yl)ethyl)-N-methylcyanamide]	1000 to 10000 nM
CC(CN(C)C#N)Oc1ccnc(N)c1 (stereo not shown) [Compound 15, N-(2-((2-aminopyridin-4-yl)oxy)propyl)-N-methylcyanamide]	100 to 1000 nM
COC(C)(C)C(=O)NC(Cc1ccc(N)nc1)C(=O)COc1c(F)cccc1F (stereo not shown) [Compound 58, N-(1-(6-aminopyridin-3-yl)-4-(2,6-difluorophenoxy)-3-oxobutan-2-yl)-2-methoxy-2-methylpropanamide]	100 to 1000 nM
Nc1ccc(C[C@H](NC(=O)C2CCCC2)C(=O)COc2c(F)c(F)cc(F)c2F)cn1 [Compound 56, (S)—N-(1-(6-aminopyridin-3-yl)-3-oxo-4-(2,3,5,6-tetrafluorophenoxy)butan-2-yl)cyclopentanecarboxamide]	< 100 nM
N#CN1CCCCC1COc1ccnc(N)c1 (stereo not shown) [Compound 12, 2-(((2-aminopyridin-4-yl)oxy)methyl)piperidine-1-carbonitrile]	100 to 1000 nM
N#CN1CC(COc2ccnc(N)c2)C1 [Compound 10, 3-(((2-aminopyridin-4-yl)oxy)methyl)azetidine-1-carbonitrile]	> 100000 nM
N#CN1CCCC1COc1ccnc(N)c1 (stereo not shown) [Compound 3, 2-(((2-aminopyridin-4-yl)oxy)methyl)pyrrolidine-1-carbonitrile]	100 to 1000 nM
Nc1ccc(CCC(NC(=O)C2CCCC2)C(=O)COc2ccon2)cn1 (stereo not shown) [Compound 74, N-(5-(6-aminopyridin-3-yl)-1-(isoxazol-3-yloxy)-2-oxopentan-3-yl)cyclopentanecarboxamide]	< 100 nM
N#CN1CCCC1CCOc1ccnc(N)c1 (stereo not shown) [Compound 16, 2-(2-((2-aminopyridin-4-yl)oxy)ethyl)pyrrolidine-1-carbonitrile]	10000 to 100000 nM
CN(C#N)Cc1cc2ccnc(N)c2o1 [Compound 48, N-((7-aminofuro[2,3-c]pyridin-2-yl)methyl)-N-methylcyanamide]	100 to 1000 nM
CNc1cc(OCC2CCCN2C#N)ccn1 (stereo not shown) [Compound 22, 2-(((2-(methylamino)pyridin-4-yl)oxy)methyl)pyrrolidine-1-carbonitrile]	100 to 1000 nM
CN(C#N)CCOc1ccnc(N)c1 [Compound 13, N-(2-((2-aminopyridin-4-yl)oxy)ethyl)-N-methylcyanamide]	100 to 1000 nM
N#CN1CCCC1CCCOc1ccnc(N)c1 (stereo not shown) [Compound 18, 2-(3-((2-aminopyridin-4-yl)oxy)propyl)pyrrolidine-1-carbonitrile]	10000 to 100000 nM
N#CN1CCC(Sc2ccnc(N)c2)C1 (stereo not shown) [Compound 38, 3-((2-aminopyridin-4-yl)thio)pyrrolidine-1-carbonitrile]	10000 to 100000 nM
CC(C)N(C#N)CCOc1ccnc(N)c1 [Compound 39, N-(2-((2-aminopyridin-4-yl)oxy)ethyl)-N-isopropylcyanamide]	10000 to 100000 nM
N#CN1C[C@@H](O)C[C@@H]1c1ccc2c(N)nccc2c1 [Compound 50b, (2R,4S)-2-(1-aminoisoquinolin-6-yl)-4-hydroxypyrrolidine-1-carbonitrile]	< 100 nM

SMILES	IC50
COC(C)(C)C(=O)NC(Cc1ccc(N)nc1)C(=O)COc1c(F)ccc(F)c1F (stereo not shown) [Compound 62, N-(1-(6-aminopyridin-3-yl)-3-oxo-4-(2,3,6-trifluorophenoxy)butan-2-yl)-2-methoxy-2-methylpropanamide]	100 to 1000 nM
CN(C)c1cc(OCC2CCCN2C#N)ccn1 (stereo not shown) [Compound 23, 2-(((2-(dimethylamino)pyridin-4-yl)oxy)methyl)pyrrolidine-1-carbonitrile]	10000 to 100000 nM
Nc1ccc(C[C@@H](NC(=O)C2CCCC2)C(=O)COc2c(F)c(F)cc(F)c2F)cn1 [Compound 57, (R)—N-(1-(6-aminopyridin-3-yl)-3-oxo-4-(2,3,5,6-tetrafluorophenoxy)butan-2-yl)cyclopentanecarboxamide]	< 100 nM
N#CN1CCC(Oc2ccnc(N)c2)CC1 [Compound 8, 4-((2-aminopyridin-4-yl)oxy)piperidine-1-carbonitrile]	> 100000 nM
Nc1cc(CCC(NC(=O)C2CCCC2)C(=O)COc2ccon2)ccn1 (stereo not shown) [Compound 71, N-(5-(2-aminopyridin-4-yl)-1-(isoxazol-3-yloxy)-2-oxopentan-3-yl)cyclopentanecarboxamide]	100 to 1000 nM
Nc1ccc(CC(NC(=O)C2CCCC2)C(=O)COc2c(F)ccc(F)c2F)cn1 (stereo not shown) [Compound 66, N-(1-(6-aminopyridin-3-yl)-3-oxo-4-(2,3,6-trifluorophenoxy)butan-2-yl)cyclopentanecarboxamide]	< 100 nM
CN(C#N)C(COc1ccnc(N)c1)c1ccccc1 (stereo not shown) [Compound 36, N-(2-((2-aminopyridin-4-yl)oxy)-1-phenylethyl)-N-methylcyanamide]	1000 to 10000 nM
COC(C)(C)C(=O)NC(Cc1ccc(N)nc1)C(=O)COc1ccon1 (stereo not shown) [Compound 59, N-(1-(6-aminopyridin-3-yl)-4-(isoxazol-3-yloxy)-3-oxobutan-2-yl)-2-methoxy-2-methylpropanamide]	100 to 1000 nM
N#CN1CCC[C@H]1/C=C/c1ccnc(N)c1 [Compound 32, (S,E)-2-(2-(2-aminopyridin-4-yl)vinyl)pyrrolidine-1-carbonitrile]	100 to 1000 nM
N#CN1CCN(c2ccnc(N)c2)CC1 [Compound 33, 4-(2-aminopyridin-4-yl)piperazine-1-carbonitrile]	1000 to 10000 nM
CC(C)N(C#N)CCCc1ccnc(N)c1 [Compound 6, N-(3-(2-aminopyridin-4-yl)propyl)-N-isopropylcyanamide]	10000 to 100000 nM
CNc1nccc2cc([C@H]3CCCN3C#N)ccc12 [Compound 51b, (R)-2-(1-(methylamino)isoquinolin-6-yl)pyrrolidine-1-carbonitrile]	10000 to 100000 nM
CCC(COc1ccnc(N)c1)N(C)C#N (stereo not shown) [Compound 35, N-(1-((2-aminopyridin-4-yl)oxy)butan-2-yl)-N-methylcyanamide]	1000 to 10000 nM
Nc1ccc(CC(NC(=O)C2CCCC2)C(=O)COc2c(F)cccc2F)cn1 (stereo not shown) [Compound 67, N-(1-(6-aminopyridin-3-yl)-4-(2,6-difluorophenoxy)-3-oxobutan-2-yl)cyclopentanecarboxamide]	< 100 nM
COC(C)(C)C(=O)NC(Cc1ccnc(N)c1)C(=O)COc1c(F)c(F)cc(F)c1F (stereo not shown) [Compound 65, N-(1-(2-aminopyridin-4-yl)-3-oxo-4-(2,3,5,6-tetrafluorophenoxy)butan-2-yl)-2-methoxy-2-methylpropanamide]	< 100 nM
Nc1cc(CC(NC(=O)C2CCCC2)C(=O)COc2c(F)ccc(F)c2F)ccn1 (stereo not shown) [Compound 69, N-(1-(2-aminopyridin-4-yl)-3-oxo-4-(2,3,6-trifluorophenoxy)butan-2-yl)cyclopentanecarboxamide]	< 100 nM
CN(C#N)c1ccc2ccnc(N)c2c1 [Compound 1, N-(1-aminoisoquinolin-7-yl)-N-methylcyanamide]	> 100000 nM
COC(C)(C)C(=O)NC(Cc1ccnc(N)c1)C(=O)COc1c(F)ccc(F)c1F (stereo not shown) [Compound 64, N-(1-(2-aminopyridin-4-yl)-3-oxo-4-(2,3,6-trifluorophenoxy)butan-2-yl)-2-methoxy-2-methylpropanamide]	100 to 1000 nM
N#CN1CCC(CCOc2ccnc(N)c2)C1 (stereo not shown) [Compound 17, 3-(2-((2-aminopyridin-4-yl)oxy)ethyl)pyrrolidine-1-carbonitrile]	1000 to 10000 nM
Nc1cc(CC(NC(=O)C2CCCC2)C(=O)COc2c(F)c(F)cc(F)c2F)ccn1 (stereo not shown) [Compound 54, N-(1-(2-aminopyridin-4-yl)-3-oxo-4-(2,3,5,6-tetrafluorophenoxy)butan-2-yl)cyclopentanecarboxamide]	< 100 nM

Same assay, conditions: Activity (RgpB IC50), compound not tested above 1 μM; 0.02 nM RgpB, 10 μM Boc-Phe-Ser-Arg-MCA, 90 minutes, 37° C.

SMILES	IC50
COC(C)(C)C(=O)NC(Cc1ccc(N)nc1)C(=O)COC(C(F)(F)F)C(F)(F)F (stereo not shown) [Compound 72, N-(1-(6-aminopyridin-3-yl)-4-((1,1,1,3,3,3-hexafluoropropan-2-yl)oxy)-3-oxobutan-2-yl)-2-methoxy-2-methylpropanamide]	> 1000 nM
CN(C)c1nccc2cc([C@H]3CCCN3C#N)ccc12 [Compound 52b, (R)-2-(1-(dimethylamino)isoquinolin-6-yl)pyrrolidine-1-carbonitrile]	> 1000 nM
COC(C)(C)C(=O)NC(Cc1ccnc(N)c1)C(=O)COC(C(F)(F)F)C(F)(F)F (stereo not shown) [Compound 73, N-(1-(2-aminopyridin-4-yl)-4-((1,1,1,3,3,3-hexafluoropropan-2-yl)oxy)-3-oxobutan-2-yl)-2-methoxy-2-methylpropanamide]	> 1000 nM

From patent US11059786B2, “Aminopyridine compounds and methods for the preparation and use thereof” (Cortexyme, Inc., priority 2017, dated 2021)
